Assay results published in patent US20050191348A1 (priority 2004, published 2005).

Columns and labels:
caspase-3 = assay: Caspase-3 cleavage in SH-SY5Y cells in serum free medium; assay type: cell-based, human; conditions: 3 days serum free, then 48 h with 1, 10 μM
Procedure: FIGS. 3A-3D show the neuroprotective effects of propargylamine against serum deprivation. PC12 cells (3A) and SH-SY5Y neuroblastoma cells (3B) were incubated under serum deprivation and were untreated or treated with propargylamine (0.1, 1, 10 μM) for 24 hours. Cell death was detected by ELISA and the values are expressed as a percentage of the control. The results are the mean±SEM (n=3). *p<0.05 vs. control, untreated cells. (3C) Morphological characteristics visualized by phase-contrast microscope of PC12 cells maintained with full serum medium (a), or serum-free medium in the absence (b) or presence of propargylamine (1 μM) (c) or (10 μM) (d). The morphology was visualized by phase-contrast microscope. The results are representative photographic. Similar results were repeated 3 times. (3D) Effect of propargylamine on caspase-3 cleavage in SH-SY5Y neuroblastoma cells incubated 3 days in serum free medium, followed by 48 h incubation with or without propargylamine (1,10 μM).
(iv) Immunoblot Analyses. […] Protein content was determined using the Bradford method. […] Quantification of results was accomplished by measuring the optical density of the labeled bands from the autoradiograms by scanning laser densitometry using the computerized imaging program Bio-ID (Imager, Bio1D software; Vilber Lourmat, Marne La Vallee, France). […]

sAPPα = sAPPα release into medium of SH-SY5Y neuroblastoma cells; assay type: cell-based, human; conditions: SH-SY5Y, 0.1, 1 and 10 μM, 3 h, versus untreated cells
Procedure: For the experiments, cells were seeded (2×10^6) onto 100-mm plates (for SH-SY5Y cells) or T75 flasks (for PC12 cells) in culture medium supplemented with full serum for 48 h. The cells were replaced with fresh medium containing 0.5% FCS for an additional 24 h (subconfluent culture), and then the experiments were performed in fresh medium containing 0.5% FCS for the indicated time periods at 37° C. After incubation with various drugs, the conditioned media were collected, centrifuged at 3500 g (10 min, 4° C.) to remove cell debris, and the cleared supernatants were concentrated 10-fold by lyophilization.
(vii) Determination of sAPP. Protein concentrations of cell lysates were assayed using Bradford reagent (Sigma Chemical). Equal amounts of volumes of conditioned medium, standardized to lysate protein, were subjected to […], using either the MAbs 22C11 or 6E10 in 50 mM Tris-HCl, pH 7.4, 150 mM NaCl, containing 0.05% Tween 20 and 1% BSA. Immunoreactivity was detected using anti-mouse IgG-conjugated with HRP and an enhanced chemiluminescence method (Amersham, Pharmacia Biotech, UK). Blots were developed for different times to span a linear range of response, and the relative intensity of immunoreactive bands on the exposed films was quantified by computer-assisted densitometry program (Quantity One, Bio-Rad, Hercules, Calif., USA).
It was of interest to determine whether rasagiline and other propargylamine-containing drugs also regulate APP processing. For this purpose, SH-SY5Y neuroblastoma cells were incubated for 3 h without or with 1 μM of various drugs (TV3326 and its S-isomer TV3279, rasagiline and its S-isomer TVP1022, selegiline, aminoindan), and sAPPα was measured in the media as described in Materials and Methods.
We further characterized, in detail, the effect of rasagiline on APP processing and the signaling pathways that are involved. Thus, SH-SY5Y neuroblastoma cells were incubated for 3 h without or with increasing concentrations of rasagiline (0.1, 1 and 10 μM), and sAPPα was measured in the media as described in Materials and Methods.
For the sAPPα release, SH-SY5Y neuroblastoma cells or PC12 cells were incubated for 3 h without or with increasing concentrations of propargylamine (0.1, 1 and 10 μM), and sAPPα was measured in the media as described in Materials and Methods.

MAPK = MAPK activation (phospho-p44/42 MAPK immunoblot) in PC12 cells; assay type: cell-based, rat; conditions: PC12, 0.1, 1 and 10 μM, 0.5 h
Procedure: (viii) Extracellular signal-regulated kinase (ERK) activity. The kinase activity of the ERKs was measured using the MAPK assay kit (Cell Signaling Technology) according to the manufacturer's protocol. In brief, for kinase activity assays, PC12 cells were grown in 6-well plates (5×10^5 cells/well). Eighteen to twenty-four hours before experiments, the medium was replaced with DMEM with 0.5% FCS and treated as described in the figures. Experimental treatments were performed in 1 ml medium containing 0.5% FCS, with the vehicle or test drugs and/or inhibitors at 37° C., as described in the figures. After treatment, reactions were stopped by placing cells on ice and aspirating the medium. Cells were harvested in 50 mM Tris-HCl, pH 8.0, 150 mM NaCl, 5 mM EDTA, 1 mM DTT, 1% Triton X-100, and protease- and phosphatase-inhibitor cocktails. Protein concentration was determined by the Bradford method. As described previously (Yogev-Falach et al., 2002), each cell lysate, containing 30 μg protein, was separated on 4-12% SDS-polyacrylamide electrophoresis gels, immunoblotted, and identified using phospho-p44/42 MAPK (Thr202/Tyr204) antibody or p44/42 MAPK antibody. Data are representative of three to six independent experiments.
To study the effect of rasagiline on MAPK activation, PC12 cells were treated for 0.5 h with increasing concentrations of rasagiline (0.1, 1 and 10 μM), and quantification of the phospho-MAPK blots were normalized using the total MAPK blots, or PC12 cells were preincubated for 15 min with vehicle alone, or with PD98059 (30 μM) or GF109203X (2.5 μM) and then incubated without or with rasagiline (10 μM) for 0.5 h. Aliquots of cell lysates were then subjected to immunoblot analysis and probed with anti-phospho-MAPK (top blots) and anti-MAPK (bottom blots).
For the effect of propargylamine on MAPK activation, PC12 cells were treated for 0.5 h with increasing concentrations of propargylamine (0.1, 1 and 10 μM). Aliquots of cell lysates were then subjected to immunoblot analysis and probed with anti-phospho-MAPK and anti-MAP kinase. Quantification of the phospho-MAPK were normalized using the total MAPK blots.

C#CCN [propargylamine]
activated caspase-3 (caspase-3): decreased activated caspase-3
sAPPα released into the medium (sAPPα): significant, dose-dependent increase in sAPPα
MAPK phosphorylation (MAPK): induced MAPK phosphorylation
